Results reported in patent US12544370B2, “Methods for cancer therapy” (ASCENTAGE PHARMA (SUZHOU) CO., LTD., priority 2018, dated 2026).

Legend:
[1] = test system: TKI-resistant patients with chronic phase (CP) or accelerated phase (AP) CML; assay: Phase I study in TKI-resistant CML, efficacy (Example 1); type: in vivo, human; conditions: for CHR achieved: 2 mg to 60 mg, within 3 cycles; for CCyR achieved / MCyR achieved: evaluable ≥3 cycles; for MCyR achieved: 12 mg to 50 mg
Text: The eligible patients received treatments until disease progression or intolerable toxicities. The primary efficacy endpoint in the CML AP and CP patients, was complete hematological response (CHR) and major cytogenetic response (MCyR) respectively, MCyR includes partial cytogenetic response (PCyR) and complete cytogenetic response (CCyR). Blood samples were collected at various time points on Day 1-2 and Day 27-28 during cycle 1 for PK analyses.

[2] = Phase I study, pharmacokinetics (Example 1); type: in vivo, human
[3] = Phase 1 trial, pharmacokinetics (Example 2); conditions: for half-life / Tmax: human, in vivo; for Tmax: median Tmax
Text: The eligible patients received continuous treatment until disease progression or unacceptable toxicity, consent withdrawal, or death. The primary efficacy endpoints were major cytogenetic response (MCyR) for CP and complete hematological response (CHR) for AP. MCyR includes partial cytogenetic response (PCyR) and complete cytogenetic response (CCyR). Blood samples were collected at various time points on Day 1-2 and Day 27-28 during cycle 1 for PK analyses.

[4] = test system: human CML xenograft model; assay: Subcutaneous tumors, human CML xenograft model; type: in vivo
[5] = test system: murine Ba/F3 cells expressing BCR-ABL^WT; assay: Subcutaneous tumors, isogenic Ba/F3 BCR-ABL WT model; type: in vivo
[6] = Example 1, Table 2, T315I mutation
[7] = Example 1, Table 2, Without T315I mutation
[8] = FIG. 2A, CML-CP, 24 patients T315I−
[9] = FIG. 2A, CML-CP, 42 patients T315I+
[10] = FIG. 2A, CML-CP, total 66 patients
[11] = FIG. 3A, 30 mg, CML-CP, 7 patients T315I+
[12] = FIG. 3A, 30 mg, CML-CP, 7 patients T315I−
[13] = FIG. 3A, 30 mg, CML-CP, total 14 patients
[14] = FIG. 3B, 40 mg, CML-CP, 8 patients T315I−
[15] = FIG. 3B, 40 mg, CML-CP, 10 patients T315I+
[16] = FIG. 3B, 40 mg, CML-CP, total 18 patients
[17] = FIG. 3C, 50 mg, CML-CP, 4 patients T315I−
[18] = FIG. 3C, 50 mg, CML-CP, 8 patients T315I+
[19] = FIG. 3C, 50 mg, CML-CP, total 12 patients

Which results are given for `Cc1ccc(C(=O)Nc2ccc(CN3CCN(C)CC3)c(C(F)(F)F)c2)cc1C#Cc1cnc2[nH]ncc2c1` [compound of formula (I-A), 3-(2-(1H-pyrazolo[3,4-b]pyridin-5-yl)ethynyl)-4-methyl-N-(4-((4-methylpiperazin-1-yl)methyl)-3-(trifluoromethyl)phenyl)-benzamide]?
activity by T315I mutation status at baseline ([1]; Example 1, Table 2): highly active in patients with or without T315I mutation at baseline; Complete cytogenetic response, responders/evaluable ([1]; Example 1, Table 2, All): 14/47; Complete hematological response, responders/evaluable ([1]; Example 1, Table 2, All): 65/70; Major cytogenetic response, responders/evaluable ([1]; Example 1, Table 2, All): 24/47; Major molecular response, percent ([1]; Example 1, Table 2, All): (13%); Major molecular response, responders/evaluable ([1]; Example 1, Table 2, All): 6/48; Complete cytogenetic response, percent [1, 6]: (45%); Complete cytogenetic response, responders/evaluable [1, 6]: 13/29; Complete hematological response, percent [1, 6]: (89%); Complete hematological response, responders/evaluable [1, 6]: 40/45; Major cytogenetic response, percent [1, 6]: (59%); Major cytogenetic response, responders/evaluable [1, 6]: 17/29; Major molecular response, percent [1, 6]: (20%); Major molecular response, responders/evaluable [1, 6]: 6/30; Complete cytogenetic response, percent [1, 7]: (6%); Complete cytogenetic response, responders/evaluable [1, 7]: 1/18; Complete hematological response, percent [1, 7]: (100%); Complete hematological response, responders/evaluable [1, 7]: 25/25; Major cytogenetic response, percent [1, 7]: (39%); Major cytogenetic response, responders/evaluable [1, 7]: 7/18; Major molecular response, responders/evaluable [1, 7]: 0/18; CHR achieved ([1]; Example 1, AP patients): 7 (58%) n (%); CCyR achieved ([1]; Example 1, AP patients): 2 (25%) n (%); MCyR achieved ([1]; Example 1, AP patients): 3 (38%) n (%); MMR achieved ([1]; Example 1, CP patients): 6 (15%) n (%); CHR achieved ([1]; Example 1, CP patients): 58 (100%) n (%); CCyR achieved ([1]; Example 1, CP patients): 12 (31%) n (%); MCyR achieved ([1]; Example 1, CP patients): 21 (54%) n (%); patients who achieved MCyR or MMR at the end of cycle ([1]; Example 1, cycle number not given): More than 65%; CHR ([1]; FIG. 1A, CML-CP, 32 patients T315I−): 100%; CHR ([1]; FIG. 1A, CML-CP, 50 patients T315I+): 96%; CHR ([1]; FIG. 1A, CML-CP, total 82 patients): 98%; CHR ([1]; FIG. 1B, CML-AP, 3 patients T315I−): 100%; CHR ([1]; FIG. 1B, CML-AP, 11 patients T315I+): 82%; CHR ([1]; FIG. 1B, CML-AP, total 14 patients): 86%; CCyR [1, 8]: 17%; MCyR [1, 8]: 46%; PCyR [1, 8]: 29%; CCyR [1, 9]: 74%; MCyR [1, 9]: 78%; PCyR [1, 9]: 4%; CCyR [1, 10]: 53%; MCyR [1, 10]: 67%; PCyR [1, 10]: 14%; response rate (cytogenetic) ([1]; FIG. 2B, CML-AP, 3 patients T315I−): 0; CCyR ([1]; FIG. 2B, CML-AP, 9 patients T315I+): 33%; MCyR ([1]; FIG. 2B, CML-AP, total 12 patients): 25%; CCyR [1, 11]: 57%; MCyR [1, 11]: 71%; PCyR [1, 11]: 14%; CCyR [1, 12]: 14%; MCyR [1, 12]: 28%; PCyR [1, 12]: 14%; CCyR [1, 13]: 36%; MCyR [1, 13]: 50%; PCyR [1, 13]: 14%; CCyR [1, 14]: 13%; MCyR [1, 14]: 50%; PCyR [1, 14]: 38%; CCyR [1, 15]: 60%; MCyR [1, 15]: 60%; CCyR [1, 16]: 38%; MCyR [1, 16]: 54%; PCyR [1, 16]: 16%; CCyR [1, 17]: 25%; MCyR [1, 17]: 50%; PCyR [1, 17]: 25%; CCyR [1, 18]: 75%; MCyR [1, 18]: 100%; PCyR [1, 18]: 25%; CCyR [1, 19]: 58%; MCyR [1, 19]: 83%; PCyR [1, 19]: 25%; MMR ([1]; FIG. 4A, CML-CP, 24 patients T315I−): 4%; MMR ([1]; FIG. 4A, CML-CP, 43 patients T315I+): 47%; MMR ([1]; FIG. 4A, CML-CP, total 67 patients): 31%; MMR ([1]; FIG. 4B, CML-AP, 3 patients T315I−): 0%; MMR ([1]; FIG. 4B, CML-AP, 9 patients T315I+): 11%; MMR ([1]; FIG. 4B, CML-AP, total 12 patients): 8%; time at which peak concentration was reached ([2]; oral, 1 mg to 60 mg): 2 to 8 h; dose proportionality of Cmax and AUC0-t ([2]; single or multiple oral dose 1 to 60 mg): approximately dose proportional increase; time at which peak concentration was reached ([3]; Day 1, single oral administration, 1-60 mg): 1 to 12 h; time at which peak concentration was observed ([3]; Day 27, QOD): 1 to 12 h; half-life ([3]; mean terminal T1/2, Day 1, 1-60 mg, watching time window 48 hrs): 17.5 to 36.5 h; half-life ([3]; mean terminal T1/2, Day 27, watching time window 48 hrs): 19.8 to 42.5 h; Tmax ([3]; Day 1, 1-60 mg): 4 to 8 h; Tmax ([3]; Day 27, QOD): 4 to 6 h; effect on subcutaneous tumors [4]: complete regression; effect on subcutaneous tumors [5]: complete regression
